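Cultured in 96-well plates, cells were exposed to test compound for 48 hours across five concentrations. TGI marks complete inhibition of growth.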

The values that follow come from PubChem BioAssay (NCI).

What all share (test): inhibition of tumour cell growth, NCI panel, 48 h
Assay [1] has as its system HL-60(TB) leukemia.
Assay [2] concerns A498 renal.
The subject of assay [3] is SR leukemia.
Assay [4] relates to SK-MEL-5 melanoma.
The test system of assay [5] is SN12C renal.
The test system of assay [6] is SK-OV-3 ovarian.
The subject of assay [7] is HCT-15 colon.
Assay [8] concerns K-562 leukemia.
For assay [9], the system named is SW-620 colon.
Assay [10] has as its system UACC-257 melanoma.
Assay [11] relates to BT-549 breast.

Regarding `CSC1=N/C(=C\c2cccs2)C(=O)N1CN1CCOCC1`, the TGI in assay [1], in [2], in assay [3], in assay [4], in assay [5] and in [6] was more than 100 µM in each case. For the same compound, the TGI in assay [7], in [8] and in assay [9] was more than 100 µM throughout.

On to `CN(C)c1nc(N(C)C)nc(N(C)CN(C)c2ccccc2)n1`, for which the TGI in [1], in assay [4], in assay [5], in [6], in assay [7] and in [8] was more than 100 µM in each case. In assay [10], this compound came in with a TGI of more than 100 µM.

With `COc1ccc2c(=O)c([Se]c3coc4cc(OC)ccc4c3=O)coc2c1`, the TGI in [1], in assay [2], in assay [3], in [4], in [5] and in assay [6] was more than 100 µM in each case. Further, the TGI in [7], in assay [8], in [9] and in assay [10] was more than 100 µM each time.

With `CCOC(=O)/C(C(=S)NC)=C(/N)N1CCCC1`, the TGI in assay [1], in [2], in assay [3], in assay [4], in assay [5] and in [6] was more than 100 µM throughout. The TGI in assay [7], in assay [8], in [9] and in assay [10] was more than 100 µM in each case.

As for `CC(=O)OC1C=CC2CCN3C(=O)c4cc5c(cc4[C@H]1C23)OCO5` (stereo partly drawn), the TGI in assay [1], in assay [3], in assay [5], in [6], in [7] and in assay [8] was more than 100 µM in each case. Besides, the TGI in assay [9] and in assay [10] was more than 100 µM each time.

`CC(/C=C/c1ncccc1OCCCCCC(=O)O)=N\NC1=NCCN1`: the TGI in [1], in assay [3], in [5], in [6], in assay [7] and in [8] was more than 100 µM each time. In assay [9], this compound registered a TGI of more than 100 µM.

Consider `CC1=CC(c2ccccc2)OP1(=O)c1ccccc1` (stereo not drawn), for which the TGI in [1], in assay [2], in [3], in assay [4], in [5] and in [6] was more than 100 µM in each case. The TGI in assay [7], in [8], in assay [9] and in [10] was more than 100 µM in each case.

On to `O=C(CSc1nc2ccc(I)cc2c(=O)n1Cc1ccccc1)N/N=C/c1ccccc1`, for which the TGI in assay [1] is more than 100 µM; in assay [2], 43.7 µM; in assay [3], more than 100 µM; in assay [4], more than 100 µM; in assay [5], more than 100 µM; in assay [6], 31.6 µM. Besides, the TGI in assay [7], in assay [8], in assay [9] and in assay [10] was more than 100 µM in each case.

On to `Cc1c2c(c(C)c3c[n+](C)ccc13)Oc1ccccc1O2`, for which the TGI in [1] was 39.4 µM; in assay [2], more than 100 µM; in assay [4], 42.5 µM; in [5], more than 42.4 µM; in [6], more than 84.5 µM; in assay [7] it was more than 100 µM. The values for the TGI in assay [8], in assay [9] and in [10] were 35.4 µM, more than 52.8 µM and 25.9 µM, respectively.

Regarding `NCCCNCCSSCc1ccccc1CSSCCNCCCN`, the TGI in assay [1] was 29.8 µM; in assay [2] it was more than 100 µM; in assay [4] it was more than 100 µM; in assay [5], more than 100 µM; in [6], more than 100 µM; in [7] it was more than 100 µM. Moreover, the TGI in assay [8], in [9] and in assay [10] was more than 100 µM in each case.

Consider `Cc1ccc2nc3c(C(=O)NCCN(C)C)cccc3cc2c1`, for which the TGI in assay [1] is 3.72 µM; in [2] it was 3.4 µM; in assay [4], 3.41 µM; in assay [5], 7.06 µM; in assay [6] it was 6.66 µM; in assay [7], 4.91 µM. Also, the TGI in assay [8] came to 7.83 µM; in [9], 5.45 µM; in [10], 4.56 µM.

`COCCO`: the TGI in assay [1], in assay [2], in [4], in [5], in [6] and in assay [7] was more than 100 µM each time. Besides, the TGI in assay [8], in assay [9] and in assay [10] was more than 100 µM throughout.

As for `COc1cc2cc3c4c(cc(OC)c(OC)c4c2cc1OC)CCN3C(=O)CCCC(=O)O`, the TGI in assay [1], in [2], in [3], in assay [4], in [5] and in [6] was more than 100 µM in each case. Moreover, the TGI in assay [8], in assay [9] and in [10] was more than 100 µM each time.

With `N#CC12COC3(CCCCC3C1(C#N)C#N)OC2=N` (stereo not drawn), the TGI in assay [2] is 39.3 µM; in assay [11], 30.5 µM; in assay [4], 23.5 µM; in [5], 24.8 µM; in [6] it was more than 100 µM; in assay [8] it was more than 100 µM. Besides, the values for the TGI in assay [9] and in assay [10] were more than 100 µM and 34.1 µM, respectively.

Consider `O=C1CCCCC/C=C2/CC[C@H](Sc3ccccc3)[C@@H]12`, for which the TGI in [1], in [3], in [4], in [5], in [6] and in assay [7] was more than 100 µM each time. Further, the TGI in [8], in assay [9] and in assay [10] was more than 100 µM throughout.
